Test results as given in patent US4895834A, “Renin inhibitors III” (Warner-Lambert Company, priority 1987, dated 1990).

tested on: renin maintained blood pressure (Hog renin infused); assay: lowering renin maintained blood pressure in the anesthetized, vagotomized, ganglionic-blocked rat (hog renin infused); type: in vivo; details: 1 mg/kg IV
Experimental: The effectiveness of the aforementioned compounds in vivo is determined by their effect on lowering renin maintained blood pressure in the anesthetized, vagotomized, ganglionic-blocked rat.
After the blood pressure has stabilized, 1.25 mg/kg IV mecamylamine is added to produce ganglionic blockade. Hog renin is then infused to bring the blood pressure to a level observed before vagotomy and ganglionic blockade. Test compound is then administered IV and the drop in blood pressure is noted.
The compound was administered at as dose of 1 mg/kg.

SMILES | Percent Decrease of Blood Pressure [%]
CC(C)C[C@H](NC(=O)C[C@H](O)[C@H](CC(C)C)NC(=O)[C@H](Cc1c[nH]cn1)NC(=O)C(Cc1cccc2ccccc12)Cc1cccc2ccccc12)C(=O)NCc1ccccc1 [Example 1, DNMA-HIS-STA-LEU-NHCH2 Ph] | 65

target: T1, renin (Homo sapiens, UniProt P00797); assay: in vitro renin inhibitory activity, radioimmunoassay for angiotensin I; type: biochemical; details: molar concentration causing 50% inhibition of renin activity; renin incubated two hours at 37° with angiotensinogen
T1 sequence (P00797 67-406): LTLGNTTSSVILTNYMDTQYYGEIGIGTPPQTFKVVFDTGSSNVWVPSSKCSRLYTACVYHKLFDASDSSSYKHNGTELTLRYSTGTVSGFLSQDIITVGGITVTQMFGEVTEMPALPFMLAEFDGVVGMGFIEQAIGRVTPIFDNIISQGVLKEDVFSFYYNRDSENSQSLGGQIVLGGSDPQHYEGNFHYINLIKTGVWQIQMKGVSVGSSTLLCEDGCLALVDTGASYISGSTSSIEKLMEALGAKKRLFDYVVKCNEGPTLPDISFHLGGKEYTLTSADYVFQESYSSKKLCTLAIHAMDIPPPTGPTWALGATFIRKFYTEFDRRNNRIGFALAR
Experimental: The effectiveness of the aforementioned compound is determined by a test for in vitro renin inhibitory activity. This activity is determined by a standard radioimmunoassay for angiotensin I. In this assay the enzyme, renin, incubated for two hours at 37° in the presence of a substrate, angiotensinogen, generates the product, angiotensin I. Test compounds are added to the incubation mixture. Relative activity is reported as the IC50, which is the molar concentration of test compound causing a 50% inhibition of the renin activity.

SMILES | IC50 [nM]
CC(C)C[C@H](NC(=O)C[C@H](O)[C@H](CC(C)C)NC(=O)[C@H](Cc1c[nH]cn1)NC(=O)C(Cc1ccccc1)SCc1ccccc1)C(=O)NCc1ccccc1 (some centres unmarked) [Example 11] | 2200
CC(C)C[C@H](NC(=O)C[C@H](O)[C@H](CC1CCCCC1)NC(=O)[C@H](CC(=O)O)NC(=O)C(Cc1cccc2ccccc12)Cc1cccc2ccccc12)C(=O)NCc1ccccc1 [Example 17, DNMA-ASP-CYSTA-LEU-NHCH2 Ph] | 980
CC(C)C[C@H](NC(=O)C[C@H](O)[C@H](CC(C)C)NC(=O)[C@H](Cc1cnc[nH]1)N(C)C(=O)C(Cc1cccc2ccccc12)Cc1cccc2ccccc12)C(=O)NCc1ccccc1 [Example 20, DNMA-(N-MeHIS)-STA-LEU-NHCH2 Ph] | 4100
CC(C)C[C@H](NC(=O)[C@H](Cc1c[nH]cn1)NC(=O)C(Cc1cccc2ccccc12)Cc1cccc2ccccc12)[C@@H](O)CC(=O)NCc1cccc(CNC(=O)OCc2ccccc2)c1 [Example 22] | 4000

Second part, the compound after the results:

IC50 [nM] | SMILES
560 | CC[C@H](C)CNC(=O)C[C@H](O)[C@H](CC(C)C)NC(=O)[C@H](Cc1c[nH]cn1)NC(=O)C(Cc1cccc2ccccc12)C(=O)OC(C)(C)C (some centres unmarked) [Example 2]
220 | CC(C)C[C@H](NC(=O)[C@H](Cc1c[nH]cn1)NC(=O)C(Cc1cccc2ccccc12)Cc1cccc2ccccc12)[C@@H](O)CC(=O)NCC(O)CSC(C)C (some centres unmarked) [Example 3, DNMA-HIS-STA-NHCH2 CH(OH)CH2 SCH(CH3)2]
82 | CC(C)C[C@H](NC(=O)[C@H](Cc1c[nH]cn1)NC(=O)C(Cc1cccc2ccccc12)Cc1cccc2ccccc12)[C@@H](O)CC(=O)NCC(O)CS(=O)(=O)C(C)C (some centres unmarked) [Example 4, DNMA-HIS-STA-NHCH2 CH(OH)CH2 SO2 CH(CH3)2]
